Laboratory results published in PubChem BioAssay AID1845194 (Molecular Pharmacology Branch, DTP, NCI, 2023).

System: 287954-098-R-J1 tumor spheroid viability
Test: Anticancer human tumor 287954-098-R-J1 patient-derived Ewing sarcoma cell line growth inhibition
Details: spheroids with HUVEC and MSC; for IC50: curve of first compound; for viability, T/C: stronger effect = lower value
Summary of the method: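 Complex spheroids of malignant cells with endothelial cells and mesenchymal stem cells; agents alone or combined, from near clinical Cmax (or 10 microM if unknown) down in half-log steps, 0.25% DMSO final.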

[1] = second compound 0.003 µM, first compound 0.0316 µM
[2] = second compound 0.003 µM, first compound 0.1 µM
[3] = second compound 0.003 µM, first compound 0.316 µM
[4] = second compound 0.003 µM, first compound 1 µM
[5] = second compound 0.003 µM, first compound 3.16 µM
[6] = second compound 0.003 µM, first compound 10 µM
[7] = second compound 0.00949 µM, first compound 0.0316 µM
[8] = second compound 0.00949 µM, first compound 0.1 µM
[9] = second compound 0.00949 µM, first compound 0.316 µM
[10] = second compound 0.00949 µM, first compound 1 µM
[11] = second compound 0.00949 µM, first compound 3.16 µM
[12] = second compound 0.00949 µM, first compound 10 µM
[13] = second compound 0.03 µM, first compound 0.0316 µM
[14] = second compound 0.03 µM, first compound 0.1 µM
[15] = second compound 0.03 µM, first compound 0.316 µM
[16] = second compound 0.03 µM, first compound 1 µM
[17] = second compound 0.03 µM, first compound 3.16 µM
[18] = second compound 0.03 µM, first compound 10 µM
[19] = second compound 0.0949 µM, first compound 0.0316 µM
[20] = second compound 0.0949 µM, first compound 0.1 µM
[21] = second compound 0.0949 µM, first compound 0.316 µM
[22] = second compound 0.0949 µM, first compound 1 µM
[23] = second compound 0.0949 µM, first compound 3.16 µM
[24] = second compound 0.0949 µM, first compound 10 µM
[25] = second compound 0.3 µM, first compound 0.0316 µM
[26] = second compound 0.3 µM, first compound 0.1 µM
[27] = second compound 0.3 µM, first compound 0.316 µM
[28] = second compound 0.3 µM, first compound 1 µM
[29] = second compound 0.3 µM, first compound 3.16 µM
[30] = second compound 0.3 µM, first compound 10 µM
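Further: spheroids exposed to compound for 7 days before viability readout.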
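Wherever viability, T/C is given: luminescent signal taken as surrogate of viable cell content; 100% = DMSO vehicle control viability and lower means growth inhibition.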

## CC(C)n1c(=O)n(C)c2cnc3cc(F)c(-c4ccc(OCCCN5CCCCC5)nc4)cc3c21 + CC[C@@]1(O)C(=O)OCc2c1cc1n(c2=O)Cc2cc3c(CN(C)C)c(O)ccc3nc2-1
Second compound 0.003 µM
  IC50: < 31.6 nM
Second compound 0.00949 µM
  IC50: < 31.6 nM
Second compound 0.03 µM
  IC50: < 31.6 nM
Second compound 0.0949 µM
  IC50: < 31.6 nM
Second compound 0.3 µM
  IC50: < 31.6 nM
[1]
  viability, T/C: 24.4%
[2]
  viability, T/C: 25.2%
[3]
  viability, T/C: 14.1%
[4]
  viability, T/C: 18%
[5]
  viability, T/C: 18.6%
[6]
  viability, T/C: 0.6%
[7]
  viability, T/C: 1.98%
[8]
  viability, T/C: 1.84%
[9]
  viability, T/C: 1.79%
[10]
  viability, T/C: 1.85%
[11]
  viability, T/C: 1.45%
[12]
  viability, T/C: 0.25%
[13]
  viability, T/C: 1.57%
[14]
  viability, T/C: 1.36%
[15]
  viability, T/C: 1.48%
[16]
  viability, T/C: 1.56%
[17]
  viability, T/C: 1.35%
[18]
  viability, T/C: 0.27%
[19]
  viability, T/C: 1.39%
[20]
  viability, T/C: 1.29%
[21]
  viability, T/C: 1.62%
[22]
  viability, T/C: 1.24%
[23]
  viability, T/C: 1.02%
[24]
  viability, T/C: 0.43%
[25]
  viability, T/C: 1.39%
[26]
  viability, T/C: 1.68%
[27]
  viability, T/C: 1.34%
[28]
  viability, T/C: 1.48%
[29]
  viability, T/C: 1.35%
[30]
  viability, T/C: 0.58%

## COc1cc(C)[nH]c(=O)c1CN1CCc2c(Cl)cc(C(OC)C3COC3)c(Cl)c2C1=O (stereo not given) + CC[C@@]1(O)C(=O)OCc2c1cc1n(c2=O)Cc2cc3c(CN(C)C)c(O)ccc3nc2-1
Second compound 0.003 µM
  IC50: > 10000 nM
Second compound 0.00949 µM
  IC50: > 10000 nM
Second compound 0.03 µM
  IC50: 117 nM
Second compound 0.0949 µM
  IC50: < 31.6 nM
Second compound 0.3 µM
  IC50: < 31.6 nM
[1]
  viability, T/C: 94.9%
[2]
  viability, T/C: 94.7%
[3]
  viability, T/C: 99.9%
[4]
  viability, T/C: 95.5%
[5]
  viability, T/C: 88%
[6]
  viability, T/C: 93%
[7]
  viability, T/C: 108%
[8]
  viability, T/C: 99.6%
[9]
  viability, T/C: 92.3%
[10]
  viability, T/C: 89.1%
[11]
  viability, T/C: 95.1%
[12]
  viability, T/C: 92.8%
[13]
  viability, T/C: 63.6%
[14]
  viability, T/C: 36.6%
[15]
  viability, T/C: 50.9%
[16]
  viability, T/C: 36.4%
[17]
  viability, T/C: 28%
[18]
  viability, T/C: 2.56%
[19]
  viability, T/C: 1.65%
[20]
  viability, T/C: 1.55%
[21]
  viability, T/C: 1.34%
[22]
  viability, T/C: 1.37%
[23]
  viability, T/C: 1.24%
[24]
  viability, T/C: 1.63%
[25]
  viability, T/C: 1.38%
[26]
  viability, T/C: 1.47%
[27]
  viability, T/C: 1.35%
[28]
  viability, T/C: 1.69%
[29]
  viability, T/C: 1.33%
[30]
  viability, T/C: 1.57%

## Cc1sc2c(c1C)C(c1ccc(Cl)cc1)=NC(CC(=O)Nc1ccc(O)cc1)c1nnc(C)n1-2 (stereo not given) + COc1cc2c(cc1O)CCNC21CSC2c3c(OC(C)=O)c(C)c4c(c3C(COC1=O)N1C(O)C3Cc5cc(C)c(OC)c(O)c5C(C21)N3C)OCO4
Second compound 30 pM
  IC50: 529 nM
Second compound 94.9 pM
  IC50: 428 nM
Second compound 0.0003 µM
  IC50: 77.3 nM
Second compound 0.000949 µM
  IC50: < 9.49 nM
Second compound 0.003 µM
  IC50: < 9.49 nM
Second compound 30 pM, first compound 0.00949 µM
  viability, T/C: 110%
Second compound 30 pM, first compound 0.03 µM
  viability, T/C: 120%
Second compound 30 pM, first compound 0.0949 µM
  viability, T/C: 111%
Second compound 30 pM, first compound 0.3 µM
  viability, T/C: 97.2%
Second compound 30 pM, first compound 0.949 µM
  viability, T/C: 1.47%
Second compound 30 pM, first compound 3 µM
  viability, T/C: 1.05%
Second compound 94.9 pM, first compound 0.00949 µM
  viability, T/C: 109%
Second compound 94.9 pM, first compound 0.03 µM
  viability, T/C: 117%
Second compound 94.9 pM, first compound 0.0949 µM
  viability, T/C: 112%
Second compound 94.9 pM, first compound 0.3 µM
  viability, T/C: 65.4%
Second compound 94.9 pM, first compound 0.949 µM
  viability, T/C: 14.5%
Second compound 94.9 pM, first compound 3 µM
  viability, T/C: 1.03%
Second compound 0.0003 µM, first compound 0.00949 µM
  viability, T/C: 105%
Second compound 0.0003 µM, first compound 0.03 µM
  viability, T/C: 93.7%
Second compound 0.0003 µM, first compound 0.0949 µM
  viability, T/C: 39%
Second compound 0.0003 µM, first compound 0.3 µM
  viability, T/C: 12.4%
Second compound 0.0003 µM, first compound 0.949 µM
  viability, T/C: 0.78%
Second compound 0.0003 µM, first compound 3 µM
  viability, T/C: 0.57%
Second compound 0.000949 µM, first compound 0.00949 µM
  viability, T/C: 0.33%
Second compound 0.000949 µM, first compound 0.03 µM
  viability, T/C: 0.34%
Second compound 0.000949 µM, first compound 0.0949 µM
  viability, T/C: 0.25%
Second compound 0.000949 µM, first compound 0.3 µM
  viability, T/C: 0.07%
Second compound 0.000949 µM, first compound 0.949 µM
  viability, T/C: 0.03%
Second compound 0.000949 µM, first compound 3 µM
  viability, T/C: 0.11%
Second compound 0.003 µM, first compound 0.00949 µM
  viability, T/C: 0.17%
Second compound 0.003 µM, first compound 0.03 µM
  viability, T/C: 0.16%
Second compound 0.003 µM, first compound 0.0949 µM
  viability, T/C: 0.1%
Second compound 0.003 µM, first compound 0.3 µM
  viability, T/C: 0.11%
Second compound 0.003 µM, first compound 0.949 µM
  viability, T/C: 0.11%
Second compound 0.003 µM, first compound 3 µM
  viability, T/C: 0.19%
